Test results taken from publication PMC9607427, “Novel 7-Chloro-(4-thioalkylquinoline) Derivatives: Synthesis and Antiproliferative Activity through Inducing Apoptosis and DNA/RNA Damage” (Pharmaceuticals, 2022).

Legend:
Assay type in all cases: cell-based, human
[1] = tested on: CCRF-CEM (childhood T cell acute lymphoblastic leukemia); experiment: Cytotoxic MTS assay, CCRF-CEM
How it was run: (§1)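 MTS, 72 h exposure, 37 °C/5% CO2; 4-fold serial dilutions added at t0; OD490 after 1–4 h MTS; IC50 = 50% growth inhibition; technical duplicates, ≥3 biological replicates.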

[2] = tested on: HCT116 (colorectal carcinoma); experiment: Cytotoxic MTS assay, HCT116
How it was run: as §1

CCRF-CEM lymphoblasts [3] = experiment: Cell cycle and apoptosis analysis (propidium iodide flow cytometry); details: 24 h
Description: On the other hand, we wanted to find out whether compounds 48–50, 53, 54, 57, 59–63, 65–70, and 72 can stop the cell cycle of cancer cells, as it has been previously reported for chloroquine. For a more detailed description of the biological activity of the studied derivatives, we performed a cell cycle analysis of the most sensitive CCRF-CEM cells after 24 h of incubation with the novel 7-chloro-(4-thioalkylquinoline) derivatives (Table 4).
(§2) The effect of compounds on cell cycle distribution was determined to gain insights into the mechanism of its antiproliferative activity. […] For example, as compared with control, the percentage of cells in G2/M phases was increased by treatment with 5 × IC50 μM of compounds for 24 h (Table 4). […] As shown in (Table 4), there was a marked increase in the sub-G1 from 2.91 in untreated cells. 5-Bromo-2-deoxyuridine (BrDU) is incorporated into newly synthesized DNA, and 5-bromouridine (BrU) pulse labeling is therefore commonly used as a proliferation marker. Low BrDU and BrU incorporation into the DNA or RNA, respectively, of treated cells with all compounds at 5 × IC50 reflected inhibition of DNA and RNA synthesis, indicating irreversible apoptotic changes. The percentage of […] cells incorporating 5-bromouridine is proportional to the transcriptional activity of CCRF-CEM cells.
(§3) CCRF-CEM cells were seeded at a density of 1 × 10^6 cells per one mL in 6-well plates (TTP) and were cultivated with compounds at concentrations corresponding to 1 × or 5 × IC50 value. Together with the compounds-treated cells, a vehicle-treated sample was harvested at the same time point. After 24 h, the cells were washed with cold phosphate-buffered saline (PBS) and fixed in 70% ethanol added dropwise and stored overnight at −20 °C. Afterward, cells were washed in hypotonic citrate buffer, treated with RNase (50 µg mL^−1), and stained with propidium iodide. Flow cytometry using a 488 nm single beam laser (Becton Dickinson) was used for measurement. The cell cycle was analyzed by the software ModFitLT (Verity), and apoptosis was measured in a logarithmic model expressing the percentage of the particles with propidium content lower than cells in the G0/G1 phase (<G1) of the cell cycle. Half of the sample was used for pH3Ser10 antibody (Sigma) labeling and subsequent flow cytometry analysis of the cells in mitosis.

CCRF-CEM lymphoblasts [4] = experiment: Mitosis, pH3Ser10 antibody labeling, flow cytometry; details: 24 h
Description: as §2, §3

CCRF-CEM lymphoblasts [5] = experiment: BrDU incorporation analysis (DNA synthesis); details: 24 h, 1 × IC50 (first value of cell)
[6] = 5 × IC50 (second value of cell)

SMILES | IC50 [1] | IC50 [2] | >G2/M, % of Total Cellular Populations (CCRF-CEM lymphoblasts [3]; 1 × IC50 (first value of cell)) | G0/G1, % of Total Cellular Populations (CCRF-CEM lymphoblasts [3]; 1 × IC50 (first value of cell)) | G2/M, % of Total Cellular Populations (CCRF-CEM lymphoblasts [3]; 1 × IC50 (first value of cell)) | S, % of Total Cellular Populations (CCRF-CEM lymphoblasts [3]; 1 × IC50 (first value of cell)) | Sub-G1 Apoptosis, % of Total Cellular Populations (CCRF-CEM lymphoblasts [3]; 1 × IC50 (first value of cell)) | >G2/M, % of Total Cellular Populations (CCRF-CEM lymphoblasts [3]; [6]) | G0/G1, % of Total Cellular Populations (CCRF-CEM lymphoblasts [3]; [6]) | G2/M, % of Total Cellular Populations (CCRF-CEM lymphoblasts [3]; [6]) | S, % of Total Cellular Populations (CCRF-CEM lymphoblasts [3]; [6]) | Sub-G1 Apoptosis, % of Total Cellular Populations (CCRF-CEM lymphoblasts [3]; [6]) | M (Mitosis Phospho-Histone3 (Ser10)), % of Total Cellular Populations (CCRF-CEM lymphoblasts [4]; 1 × IC50 (first value of cell)) | M (Mitosis Phospho-Histone3 (Ser10)), % of Total Cellular Populations (CCRF-CEM lymphoblasts [4]; [6]) | DNA Synthesis (% positive of cells) (CCRF-CEM lymphoblasts [5])
COc1ccc(C(=O)OCCS(=O)(=O)c2cc[n+]([O-])c3cc(Cl)ccc23)cc1[N+](=O)[O-] [Compound 69, 2-[(N-Oxide 7-chloroquinolin-4-yl)sulfonyl]ethyl-4-methoxy-3-nitrobenzoate] | 1.38 µM | 13.1 µM | 8.58% | 43.48% | 20.83% | 35.7% | 3.3% | 12.52% | 38.16% | 19.27% | 42.58% | 13.89% | 1.61% | 1.6% | 34.45%
COc1ccccc1C(=O)OCCS(=O)(=O)c1cc[n+]([O-])c2cc(Cl)ccc12 [Compound 68, 2-[(N-Oxide 7-chloroquinolin-4-yl)sulfonyl]ethyl-2-methoxybenzoate] | 1.23 µM | 5.25 µM | 9.87% | 35.73% | 18.54% | 45.73% | 2.71% | 9.65% | 48.5% | 19.64% | 31.86% | 7.16% | 1.73% | 2.11% | 41.27%
O=C(OCCS(=O)(=O)c1cc[n+]([O-])c2cc(Cl)ccc12)c1ccc(C(F)(F)F)cc1 [Compound 72, 2-[(N-Oxide 7-chloroquinolin-4-yl)sulfonyl]ethyl-4-(trifluoromethyl)benzoate] | 2.14 µM | 17.3 µM | 8.35% | 47.22% | 18.46% | 34.32% | 4.05% | 13.12% | 31.36% | 21.98% | 46.65% | 10.12% | 1.61% | 5.28% | 27.07%
COc1cc(OC)c(C(=O)OCCS(=O)(=O)c2cc[n+]([O-])c3cc(Cl)ccc23)cc1OC [Compound 66, 2-[(N-Oxide 7-chloroquinolin-4-yl)sulfonyl]ethyl-2,4,5-trimethoxybenzoate] | 1.11 µM | 9.22 µM | 10.42% | 39.53% | 16.6% | – | 2.95% | 10.45% | 48.53% | 26.56% | 24.9% | 11.72% | 1.64% | 2.29% | 39.87%
COc1ccc(OC)c(C(=O)OCCS(=O)(=O)c2cc[n+]([O-])c3cc(Cl)ccc23)c1 [Compound 65, 2-[(N-Oxide 7-chloroquinolin-4-yl)sulfonyl]ethyl-2,5-dimethoxybenzoate] | 0.55 µM | 8.83 µM | 7.55% | 40.82% | 20.04% | 39.14% | 17.77% | 7.13% | 47.21% | 19.99% | 32.8% | 8.67% | 1% | 1.66% | 36.82%
Cc1ccc([N+](=O)[O-])c(C(=O)OCCS(=O)(=O)c2cc[n+]([O-])c3cc(Cl)ccc23)c1 [Compound 70, 2-[(N-Oxide 7-chloroquinolin-4-yl)sulfonyl]ethyl-5-methyl-2-nitrobenzoate] | 1.16 µM | 11.5 µM | 10.54% | 39.54% | 21.99% | 38.46% | 3.21% | 10.33% | 33.44% | 23.25% | 43.31% | 13.75% | 1.57% | 1.08% | 35.58%
COc1ccc(C(=O)OCCS(=O)(=O)c2cc[n+]([O-])c3cc(Cl)ccc23)cc1 [Compound 63, 2-[(N-Oxide 7-chloroquinolin-4-yl)sulfonyl]ethyl-4-methoxybenzoate] | 0.77 µM | 16.2 µM | 8.56% | 42.76% | 16.81% | 40.42% | 3.41% | 11.38% | 34.13% | 17.88% | 47.99% | 12.97% | 1.66% | 1.53% | 41.06%
